Literature values as cited in patent publication US20150366189A1, “DRY MELT COATING PROCESS AND FORMULATION FOR VOLATILE COMPOUNDS” (AGROFRISH INC., priority 2013, published 2015).

Conditions: enclosed space

SMILES: CC1=CC1 [Experiment 1-MCP, 1-Methylcyclopropene]
- concentration threshold above which 1-MCP is flammable: > 13,300 ppm
